Counter-ions that a name gives are not always drawn.

The test system of experiment [1] is adult mouse hippocampal cells. Briefly: primary neurosphere culture, hippocampus. The format is cell-based.
Description: Adult (6-8 week old) male C57/B16 mice were killed by cervical dislocation, their brains immediately removed and the hippocampus, SVZ, olfactory bulb or cortex dissected. The tissue was enzymatically digested with 0.1% trypsin-EDTA (Gibco/Invitrogen, Eugene, Oreg.) for 7 minutes at 37° C., followed by a wash with 0.014% w/v trypsin inhibitor (type I-S from soybean; Sigma-Aldrich. Australia, Sydney, Australia) dissolved in Hepes-buffered minimum essential medium (HEM), which consisted of minimum essential medium (Gibco/Invitrogen) supplemented with 16 mM HEPES (Sigma-Aldrich Australia) and 100 units/ml penicillin/streptomycin (Gibco/Invitrogene). The tissue was centrifuged at 100 rcf for 7 minutes, following which the pellet was resuspended in 1 ml neurosphere growth medium, mechanically triturated until smooth, then filtered through a 40 μm cell sieve (Falcon/BD Biosciences Australia, North Ryde, Australia). The neurosphere growth medium consisted of mouse NeuroCult™ NSC Basal Medium plus mouse NeuroCult™ NSC Proliferation Supplements (StemCell Technologies, Vancouver, Canada) with 2% bovine serum albumin (Roche, Basel, Switzerland) and 2 μg/ml heparin (Sigma-Aldrich Australia). […]
Experiment [2] has as its system cortical cells. Briefly: primary neurosphere culture, cortex. The format is cell-based, mouse. The conditions noted are these: depolarization (potassium). The procedure:
Adult (6-8 week old) male C57/B16 mice were killed by cervical dislocation, their brains immediately removed and the hippocampus, SVZ, olfactory bulb or cortex dissected. The tissue was enzymatically digested with 0.1% trypsin-EDTA (Gibco/Invitrogen, Eugene, Oreg.) for 7 minutes at 37° C., followed by a wash with 0.014% w/v trypsin inhibitor (type I-S from soybean; Sigma-Aldrich. Australia, Sydney, Australia) dissolved in Hepes-buffered minimum essential medium (HEM), which consisted of minimum essential medium (Gibco/Invitrogen) supplemented with 16 mM HEPES (Sigma-Aldrich Australia) and 100 units/ml penicillin/streptomycin (Gibco/Invitrogene). The tissue was centrifuged at 100 rcf for 7 minutes, following which the pellet was resuspended in 1 ml neurosphere growth medium, mechanically triturated until smooth, then filtered through a 40 μm cell sieve (Falcon/BD Biosciences Australia, North Ryde, Australia). […]
The neurosphere growth medium already contained 4.18 mM KCl. […] The primary neurospheres were then counted and collected for passaging or differentiation. Results of the neurosphere counts were expressed as mean ± standard error and statistical analysis was performed using a standard t-Test (two sample assuming equal variance).

The subject of experiment [3] is cells derived from the spinal cord. Briefly: activation of cells derived from the spinal cord. The class given is cell-based. As to conditions: KCl.
Experiment [4] deals with DCX+ve / DCX-ve and PNA positive adult hippocampal cells. Briefly: neurosphere assay on sorted hippocampal cells (DCX-GFP FACS, PNA binding). The format is cell-based, mouse. The procedure: E14, P2 and adult brains were collected as described above and processed either whole or dissected into specific regions (olfactory bulb, cortex, cerebellum and subventricular zone (SVZ)). GFP+ve cells were separated by fluorescence-activated cell sorting (FACS) using a FACS Vantage cell sorter (BD Biosciences). A wild-type littermate control was used to determine background fluorescence levels. For primary neurosphere cultures the cells were plated at a density of 500 cells/well in 96-well plates (Falcon/BD Biosciences, San Jose, Calif.) with 0.2 ml complete medium per well. […] The primary neurospheres were then counted and collected for passaging or differentiation. Results of the neurosphere counts were expressed as mean + or − standard error and statistical analysis was performed using a standard t-Test (two sample assuming equal variance).
Mice in which the green fluorescent protein (GFP) is driven by the Doublecortin (DCX) promoter (DCX-GFP) were used for the separation of DCX^+ve cells. […] DCX-GFP^+ve and DCX-GFP^−ve cells were separated by fluorescence-activated cell sorting (FACS) using a FACS Vantage cell sorter (BD Biosciences) as described (see above). A wild-type littermate control was used to determine background fluorescence levels. Potassium was added to DCX^+ve and DCX^−ve cells at a final concentration of 15 mM and the number of neurospheres counted after 10 days.

Experiment [5] relates to hippocampal precursors of mice that underwent SE. Kind of experiment: hippocampal neurosphere assay after status epilepticus in vivo. Also noted: species or system mouse. The procedure: Seizures were induced in 6-8 week old C57BL/6 male mice by the administration of pilocarpine, a muscarinic cholinergic agonist. Thirty minutes prior to pilocarpine administration, the mice were injected with 2.5 mg/kg of the cholinergic antagonist scopolamine methyl nitrate (Sigma-Aldrich) to reduce peripheral cholinergic effects. They then received intraperitoneal injections of 350 mg/kg pilocarpine hydrochloride (Sigma-Aldrich). […] Seizures were stopped 2 hours after status epilepticus onset, with an intraperitoneal injection of 5 mg/kg diazepam (Patulin, Parnell Laboratories Sydney, Australia).
In addition we observed that extended depolarization, between 24 and 48 hours exposure to high level of KCl is required for the stimulation to occur in WT hippocampus confirming the need for prolonged depolarization.

For experiment [6], the system named is 33 week HD hippocampal precursors. Kind of experiment: hippocampal neurosphere assay, Huntington's disease R6/1 mice. The class given is cell-based, mouse. The conditions noted are these: 33 week old HD mice. From the text: R6/1 (B6CBA-TgN(HDexon1)61 Gpb/Pan) mice were originally obtained from Jackson Laboratory (Bar Harbor, Me.) and maintained by backcrossing to CBB6F1 females. For the neurosphere assays we used HD exon 1 carriers (R6/1) and aged matched wild-type littermates. Huntington's Disease is a neurodegenerative disorder that affects the striatum and cortex as well as hippocampus (Murphy et al., 2000). Previous studies have shown that older symptomatic R6/1 transgenic mice have a significant decrease in cell proliferation in the hippocampus compared to wild-type mice whereas younger pre-symptomatic R6/1 and WT mice had similar levels of proliferation (Lazic et al., 2004). […] We observed a decrease in the total number of hippocampal neuroapheres with age in WT mice that was not observed in HD mice.

As for `[Cl-].[K+]` [KCl, potassium chloride], the “increase in number of neurospheres, stimulated compared to control” value in experiment [1] (18 month old hippocampus, depolarizing conditions) is given as “over 12 fold”. Besides, in experiment [1] (potassium-induced depolarization, hippocampus), the “formation of large neurospheres” value is “stimulates the formation of increased numbers of large neurospheres”. Also, the “increase in neurosphere number in cortex” value in experiment [2] was “over 3 fold”. For the same compound, the “activation of spinal cord derived cells” value in experiment [3] was “activation”. The “response of DCX-ve vs DCX+ve population to high levels of potassium” value in experiment [4] (15 mM potassium, 10 days) was “it is this population, and not the DCX^+ve population, that responds”. For the same compound, in experiment [4] (adult hippocampal cells separated by peanut agglutinin binding), the “activation of PNA positive population” value is “activated”. Moreover, the “further stimulation of precursors from SE mice by depolarizing potassium” value in experiment [5] (SE at least 2 hours, sacrificed after 48 hours, potassium added in vitro) was “no further stimulatory effect”. Besides, the “further increase of HD hippocampal precursors by potassium depolarization in vitro” value in experiment [6] was “could not be further increased”.
Regarding `CC[C@@H]1C(=O)OC[C@@H]1Cc1cncn1C` [pilocarpine hydrochloride], in experiment [5] (injections of pilocarpine hydrochloride, FIG. 8A), the “activation of latent hippocampal population by induced seizures” value is listed as “activation”.

For the origin of these results see patent US20120195860A1, “LATENT NEURAL STEM CELL POPULATION” (priority 2007, published 2012).
